Source: ChEMBL document CHEMBL3507680, “University of Dundee, Gates Library screen for HepG2 cell viability”

Test: Human HepG2 cell viability assay in 384 well format
Format: toxicity, cell-based
Parameters: dose 125 nL, time 70.5 hour; concentration not given beside the values
Conditions: HepG2 cells, read-out: Inhibition

SMILES | cytotoxicity at 70.5 h
CNC(=O)[C@@]12CCO[C@@H]1CCN(Cc1scnc1C)C2 | 4.42%
CC(C)Cc1nc(OCC#N)c(C#N)c2c1CCC2 | -2.63%
CCn1ncc2c(C(F)(F)F)cc(-c3cnn(C)c3)nc21 | -11.4%
CN(C)c1ncnc2c1CCN(CC1CCCC1)CC2 | -13.2%
O=c1ccc(-n2ccnc2)nn1CCNS(=O)(=O)c1ccc(F)c(Cl)c1 | -1.07%
CO[C@H]1C[C@@H]2CN(C(=O)c3cc4ccc(F)cc4[nH]3)C[C@@H]2C1 | -6.74%
CC(c1nc(C2CC2)no1)N1CCN(CCc2ccncc2)CC1 (stereo not drawn) | -12.6%
O=C(CCNc1ccccc1)NC1CCN(C(=O)C2CCCCC2)CC1 | -5.78%
CN(C)CCN1CCC2(CCN(C(=O)c3cccc(F)c3)CC2)C1=O | 15.4%
Cc1noc(C)c1CCCNC(=O)C1CCN(C(C)C)CC1 | -7.17%
O=C(NCC1(O)COCCN(Cc2cccc(O)c2)C1)c1cnccn1 (stereo not drawn) | -3.85%
COCCN1CCC2(CC1)CN(C(=O)c1ccccc1)CCO2 | -5.3%
Cc1c[nH]c(C(=O)N2CCCC2c2ccc(C(=O)N3CCSCC3)s2)n1 (stereo not drawn) | -11.4%
Cc1nc2n(n1)CC(NCC(=O)N(C)Cc1cccs1)CC2 (stereo not drawn) | 2.31%
CCn1c(C2CCCN(Cc3ccc(OC)c(C)c3C)C2)nn(C)c1=O (stereo not drawn) | -5.07%
CN(Cc1ccncc1)C1CC2(CCN(Cc3ccccn3)CC2)C1 | -6.76%
CC(C)CN1CCC2(CCCNC2)C1=O (stereo not drawn) | -10.9%
COC(=O)c1cc2c(=O)n(C3CCCC3)ccc2nc1C | -15.4%
COc1ccc2c(c1)nc1n2[C@@H](CNCc2nccs2)COC1 | -13.7%
Cc1cc(NC(=O)N(C)C2CCCN(c3ccccc3)C2=O)n(C)n1 (stereo not drawn) | -2.17%
Cc1ccc(C)c(NC(=O)c2coc(C)n2)c1 | -6.52%
CNC(=O)Cc1ccc(NC(=O)NCC(C)c2ncc(C)s2)cc1 (stereo not drawn) | -12.5%
COCC1CN(Cc2ccc(C)o2)Cc2nnn(C)c21 (stereo not drawn) | -0.755%

SMILES | cytotoxicity at 70.5 h
Cc1cnc(N2CCC3(CC2)CC3CNC(=O)C2CCC2)nc1 (stereo not drawn) | -1.64%
Cc1ccc(C(=O)NCCCN(C)S(C)(=O)=O)c(=O)[nH]1 | -5.2%
Cc1noc(CNc2cc3c(cc2Cl)OCCCO3)n1 | -14.8%
COc1ccc(COCC(=O)NC2CCc3nc(C)cn3C2)cc1 (stereo not drawn) | -2.95%
Cc1noc(C)c1C(=O)NCc1ccc(N2CCC(C)CC2)nc1 | 1.58%
CC(c1nc(C(C)(C)C)no1)N1CCN(Cc2ccco2)CC1 (stereo not drawn) | -15%
Cc1ccc(NC(=O)Nc2cnc(N3CCN(C)CC3)nc2)cc1 | 27.1%
Cc1cccc2c1nc1n2[C@@H](CNC(=O)C2CCOCC2)COC1 | -4.19%
O=C(c1ccsc1)N1C[C@@H]2C[C@@H](c3nnc(C4CC4)o3)O[C@@H]2C1 | -8.35%
CN(C)C(C(=O)N1CCSCC1)c1ccccc1F (stereo not drawn) | -5.06%
O=C(NCCOc1ccc(F)c(F)c1)NCc1ccncc1 | -11.2%
O=C(N[C@@H]1CCN(c2ncc(Cl)cc2Cl)C[C@H]1O)c1cnccn1 | -2.1%
O=C(C[C@H]1[C@H]2CN(C(=O)c3cccnc3)C[C@@H]12)Nc1cccnc1 | -1.44%
CC(C)c1noc(CCC(=O)NC(C)c2nnc3n2CCCCC3)n1 (stereo not drawn) | -6.86%
O=C(CCn1cnnc1)N1CCCC(c2ncc[nH]2)C1 (stereo not drawn) | -2.12%
CC1=N[C@@]2(CC[C@@H]3CN(C(=O)NC(C)C)C[C@@H]32)C(=O)N1CC1CC1 | 1.82%
O=C(c1ccnn1-c1ccc2ccccn12)N1CCOCC1 | -3.59%
COC(=O)c1ccc(C(=O)N2CCCC(Nc3ccc(F)cc3)C2)cc1 (stereo not drawn) | -1.16%
CC(C)c1ccc(CN[C@@H]2COC[C@H]2c2ccc(F)cc2)cc1 | -5.3%
O=C(CN1CCCCCC1=O)NCC1CCN(c2ccccc2)C1 (stereo not drawn) | -5.56%
CCC1CN(C(=O)c2ccc(Cl)cc2O)CCN1C(C)C (stereo not drawn) | -6.93%
O=C(CC1CC1)N1CC[C@H]2[C@@H]1CCC(=O)N2c1cccnc1 | -16.4%
c1coc(CNCC2Cn3nncc3CO2)c1 (stereo not drawn) | -8.73%

SMILES | cytotoxicity at 70.5 h
CC(C)c1nnc2n1CCN(Cc1cccc3c1OCCO3)C2 | 30%
c1ccc(-c2nc(CN3CCn4c(nnc4C4CC4)C3)no2)cc1 | -9.58%
CS(=O)(=O)N1C[C@@H]2COC[C@]2(COCC(=O)N2CCCC2)C1 | -5.68%
CCN(CC)CC(=O)N(C)C(c1cccc(F)c1)c1ccccn1 (stereo not drawn) | 13.5%
CC1c2ncc(Cn3cncn3)n2CCN1C(=O)N(C)C (stereo not drawn) | -7.73%
Cc1ccc(-c2ccsc2C(=O)NC2CCS(=O)(=O)C2)cc1 (stereo not drawn) | -3.7%
Cn1c(CN2CCCCC2)cc(=O)c(O)c1CN1CCCCC1 | 2.14%
Cc1cnn(C2CCCN(C(=O)c3cc4nc(C)ccc4o3)C2)c1 (stereo not drawn) | -5.06%
COc1cc2c(cc1OC)CN(C(=O)Cn1nc(C)cc1C)CC2 | -5.35%
CCn1c(C2CCCN(Cc3ccc4ccccc4n3)C2)nn(C)c1=O (stereo not drawn) | -3.7%
CC(COc1ccc(F)cc1F)NC(=O)NCCN1CCOCC1 (stereo not drawn) | -16%
CC(C)c1ncc2c(n1)CN(Cc1cccc3c1OCCO3)CC2 | 0.0459%
Cc1cncc(C(=O)N2CCNCC2C(=O)NCc2ccncc2)c1 (stereo not drawn) | -1.53%
O[C@@H]1C[C@@H](c2nc(-c3cccnc3)no2)N(C2CCOCC2)C1 | 16.4%
CC(NC(=O)NCc1cccnc1N(C)C)c1cccs1 (stereo not drawn) | -23.6%
O=C(NCC1CC1)C1=NOC2(CCN(Cc3ccc(Cl)c(F)c3)C2)C1 (stereo not drawn) | -7.64%
CC(C)NC(=O)NC[C@H]1OC[C@@H](NCc2ccccc2O)[C@@H]1O | -2.12%
CN(CC(=O)NCc1ccco1)Cc1nc2c(s1)CCCC2 | 4%
COCCN1C[C@H]2CN(C(=O)c3ccc4c(c3)OCO4)CCN2C1=O | -3.46%
N#Cc1cccc(CNC(=O)C2=NN(c3ccccc3)C(=O)CN2)c1 | 9.97%
CCCOC(=O)NCCC1CN(c2cnn(C)c(=O)c2)CCO1 (stereo not drawn) | -10.5%
Cc1ccc(OCC(=O)NCc2ccccc2F)nc1 | -2.31%
Cc1cccc(C(=O)N2CCN(CCC(C)C)CC2)n1 | -11.4%

SMILES | cytotoxicity at 70.5 h
Cc1ccc(N2CCOCC3(CCCN(c4ncc(F)cn4)C3)C2)nn1 (stereo not drawn) | -3.89%
Cn1c(CN2CCCc3cc(F)cc(F)c32)cc(=O)n(C)c1=O | -4.68%
CC1CCN(C(=O)CSCc2noc(C(C)C)n2)CC1 | -4.52%
CCOc1cc2c(cc1CN1CCC3(CC1)CNC(=O)C3)CCC2 | 23.3%
CN(C)c1cc2c(nn1)CCN(C(=O)C1COc3ccccc3C1)C2 (stereo not drawn) | 3.17%
CN(C)C(=O)[C@H]1C[C@@H]2CCN(Cc3ccncc3)C[C@H]2O1 | -7.62%
Cc1ccc(-c2cc(C(=O)O)sn2)cc1 | -15.1%
O=c1[nH]cnc2c1CCN(S(=O)(=O)c1ccc(Cl)cc1)C2 | -11.8%
O=C(O)C1(n2ccc(-c3ccco3)n2)CCN(Cc2cccnc2)CC1 | -4.45%
COc1cccc(OC)c1C(=O)NCC(c1cccn1C)N1CCCC1 (stereo not drawn) | -5.44%
O=C(NCc1cccnc1)[C@@H]1C[C@@H]2CCN(c3ncc(F)cn3)C[C@@H]2O1 | -12.2%
CC(=O)N1C[C@@H](F)[C@@H](OCc2nc3ccc(C#N)cc3[nH]2)C1 | -1.65%
CN1CC2(CCN(C(=O)c3ccc4nonc4c3)CC2)CC1=O | -11.3%
COC(=O)c1cc(C)nc(N2CCN(Cc3cc(C(C)C)no3)CC2)n1 | -12.8%
CN(Cc1cc(C2CC2)[nH]n1)C(=O)c1cnn2ccn(C)c12 | -10.4%
Cc1noc(C)c1CN1CCOCC12CCN(c1cnccn1)CC2 | -6.5%
CCOC[C@@H]1CCC[C@]12CN(S(=O)(=O)c1cn(C)cn1)CCO2 | -5.13%
O=C(NCCc1cccnc1)NC1CCOC2(CCCCC2)C1 (stereo not drawn) | 17.8%
CC(C)c1csc(C(=O)N(C)c2ccc(Br)cn2)n1 | -3.47%
Cc1noc(C)c1-c1cccc(CC2CCN(C(=O)c3cc[nH]n3)C2)n1 (stereo not drawn) | -18%
Cc1cc(NC(=O)CNC2CCc3ncnn3C2)no1 (stereo not drawn) | -18.6%
CN(C)CC1CN(Cc2c(Cl)ccc3cccnc23)CCO1 (stereo not drawn) | -4.72%
NC(=O)CCC1CCCN(c2ccc3c(Cl)ccnc3c2F)C1 (stereo not drawn) | -6.43%

SMILES | cytotoxicity at 70.5 h
Cc1cc(N2CCC3(CCC(=O)N(CCCO)C3)CC2)nc(N(C)C)n1 | -2.5%
c1csc(CN2CCCn3nnc(COCC4CC4)c3C2)n1 | -11%
c1ccc(-c2cnc(CN3CCCC3Cn3cncn3)o2)cc1 (stereo not drawn) | -14.6%
COCc1ccc(CNCc2c(C)nn(C)c2N(C)C)cc1 | 24.1%
Cc1ccc(OCCN(C)Cc2cscn2)cc1 | -2.46%
Cc1cnn(C2CN(CC(=O)NCC(C)C)C2)c1 | -13.6%
CC(C)NC(=O)C1CN(C(=O)c2ccco2)CC12CCOCC2 (stereo not drawn) | -6.64%
CCCN1CCC(CC(=O)NCCc2nc(C)cc(C)n2)CC1 | -4.92%
Cc1cc(C)nc(NC(C)Cc2cnccn2)n1 (stereo not drawn) | -14%
CCn1ncc2c1CCCC2NCc1ccc(OC)cc1OC (stereo not drawn) | -4.5%
Cc1nn(C)c(Cl)c1CN1CCN(c2nccs2)C(C)C1 (stereo not drawn) | 2.61%
COCC(=O)N1CCC(c2nc3ccc(N4CCOCC4)cn3n2)CC1 | -2.79%
O=C(Nc1cccnc1)N(Cc1ccccc1)C1CC1 | -15.3%
c1ccc(N2CCN(Cc3cnc(C4CCCCO4)nc3)CC2)nc1 (stereo not drawn) | -4.5%
Cc1noc(C)c1-c1ccc(C2CCCN2C(=O)c2cccnc2)nc1 (stereo not drawn) | -4.62%
NCC1CCCN(c2nc(-c3ccccc3)nc3c2CCNCC3)C1 (stereo not drawn) | 5.19%
CN(C)CC1COCCN1C(=O)c1ccccc1C(=O)c1ccccc1 (stereo not drawn) | -7.66%
Cc1ccc(CNC(=O)Nc2nncs2)cn1 | -6.07%
CN1CCC2(CC1)CN(C(=O)c1cnccn1)Cc1ccccc12 | -5.07%
OCC(CO)Nc1nc(C(F)F)nc2ccccc12 | -3.24%
CCCc1noc(CN2CCCC2c2ccsc2)n1 (stereo not drawn) | -17.8%
